# Data from ChEMBL document CHEMBL3046497, “Synthesis and antitubercular activity of novel pyrazolequinazolinone hybrid analogs” (2013).
# Key:
# Format in all cases: functional
# [1] = tested on: Mycobacterium tuberculosis; test: Antitubercular activity against Mycobacterium tuberculosis H37Rv assessed as growth inhibition by secondary screen assay
# [2] = tested on: Mycobacterium tuberculosis; test: Antitubercular activity against Mycobacterium tuberculosis H37Rv assessed as growth inhibition at <6.25 ug/ml by primary screen assay
# [3] = tested on: Mycobacterium tuberculosis; test: Antitubercular activity against Mycobacterium tuberculosis H37Rv assessed as growth inhibition by primary screen assay
# [4] = tested on: Mycobacterium tuberculosis; test: Antitubercular activity against Mycobacterium tuberculosis H37Rv assessed as growth inhibition at >6.25 ug/ml by primary screen assay
SMILES,MIC [1] [µg/mL],inhibition (INH) [2] [%],MIC [3] [µg/mL],inhibition (INH) [4] [%]
Cc1ccc(-n2cc(/C=N/n3c(-c4ccccc4Cl)nc4ccccc4c3=O)c(-c3ccncc3)n2)cc1,< 3.12,96,< 6.25,–
Cc1ccc(-n2cc(/C=N/n3c(-c4cccc([N+](=O)[O-])c4)nc4ccccc4c3=O)c(-c3ccncc3)n2)cc1,< 3.12,92,< 6.25,–
Cc1ccc(-n2cc(/C=N/n3c(-c4cccc(Cl)c4)nc4ccccc4c3=O)c(-c3ccncc3)n2)cc1,–,–,> 6.25,68
Cc1ccc(-c2nc3ccccc3c(=O)n2/N=C/c2cn(-c3ccc(C)cc3)nc2-c2ccncc2)cc1,–,–,> 6.25,67
Cc1ccc(-n2cc(/C=N/n3c(-c4ccc([N+](=O)[O-])cc4)nc4ccccc4c3=O)c(-c3ccncc3)n2)cc1,–,–,> 6.25,67
Cc1ccc(-n2cc(/C=N/n3c(-c4ccccc4C)nc4ccccc4c3=O)c(-c3ccncc3)n2)cc1,< 3.12,94,< 6.25,–
NNC(=O)c1ccncc1 [ISONIAZID],0.125,–,< 6.25,–
COc1ccc(-c2nc3ccccc3c(=O)n2/N=C/c2cn(-c3ccc(C)cc3)nc2-c2ccncc2)cc1,–,–,> 6.25,59
COc1ccccc1-c1nc2ccccc2c(=O)n1/N=C/c1cn(-c2ccc(C)cc2)nc1-c1ccncc1,< 3.12,93,< 6.25,–
COc1cccc(-c2nc3ccccc3c(=O)n2/N=C/c2cn(-c3ccc(C)cc3)nc2-c2ccncc2)c1,–,–,> 6.25,64
Cc1ccc(-n2cc(/C=N/n3c(-c4cccc(C)c4)nc4ccccc4c3=O)c(-c3ccncc3)n2)cc1,–,–,> 6.25,70
Cc1ccc(-n2cc(/C=N/n3c(-c4ccc(Cl)cc4)nc4ccccc4c3=O)c(-c3ccncc3)n2)cc1,< 3.12,90,< 6.25,–
Cc1ccc(-n2cc(/C=N/n3c(-c4ccccc4[N+](=O)[O-])nc4ccccc4c3=O)c(-c3ccncc3)n2)cc1,–,–,> 6.25,73
